Experimental data taken from patent US20110053954A1, “METHOD OF TREATMENT AND/OR PREVENTION OF BRAIN, SPINAL OR NERVE INJURY” (priority 2001, published 2011).

Legend:
Type in all cases: in vivo, rat
Male Sprague Dawley rats [1] = test: Barnes maze cognitive outcome after traumatic brain injury; conditions: i.v. at 30 minutes after injury
Description: (§1) Male Sprague Dawley rats (400±25 g) were pre-trained on both the Rotarod and Barnes maze so as to assess the effects of the compound on post-traumatic motor and cognitive outcome, respectively. After one week of training, rats were severely injured using the impact acceleration model of traumatic brain injury (2 meters) and administered either of the NK-1 receptor antagonist N-(3,5-bis-trifluoromethylbenzyl)-N-methyl-6-(4-methyl-piperazin-1-yl)-4-o-tolyl-nicotinamide (10 mg/kg i.v., based on active, free base), the NMDA (N-methyl-D-aspartate) antagonist MK801 ((+)-10,11-dihydro-5-methyl-5H-dibenzo[a,d]cyclo-hepten-5,10-diyldiammonium maleate; Dizocilpine maleate; 0.3 mg/kg i.v., based on active, free base) or 0.9% saline vehicle (n=10/group) at 30 minutes after injury.
Prior to injury, rats were trained to locate an escape tunnel (from aversive sound and light) within 20 sec. This time factor depends on the ability of the animal to learn and remember the location of the escape tunnel.

Male Sprague Dawley rats [2] = test: Mortality after severe traumatic brain injury; conditions: i.v. at 30 minutes after injury, saline 30%
Description: as §1
Mortality in rats in this severe model of injury is normally between 20 and 30%. In the saline treated animals, mortality was indeed 30%. […] This high mortality was consistent with this injury level being severe as confirmed by post mortem gross histological analysis of all brains.

Male Sprague Dawley rats [3] = test: Exploratory behavior and self-grooming (post-traumatic depression) after brain injury; conditions: brain injured rats, compared with non-injured animals
Male Sprague Dawley rats [4] = test: Evans Blue extravasation as marker of blood brain barrier permeability after traumatic brain injury; conditions: Evans Blue i.v. at 4.5 h after injury, circulating 30 mins, saline standardized to 100%
Description: Edema formation in the immediate post-traumatic period is thought to be vasogenic in origin, where increased permeability of the blood brain barrier permits protein extravasation and water accumulation in the brain interstitium. We used Evans Blue extravasation as a marker of blood brain permeability after traumatic brain injury and treatment with the NK-1 receptor antagonist N-(3,5-bis-trifluoromethyl-benzyl)-N-methyl-6-(4-methyl-piperazin-1-yl)-4-o-tolyl-nicotinamide.
At 4.5 h after induction of brain injury, animals were administered i.v. Evans Blue which was allowed to circulate for 30 mins. At that time point, animals were sacrificed and their brains removed for analysis of Evans Blue penetration. The amount of Evans Blue accumulation in the brains of saline treated animals was standardized to 100%. […] As anticipated, uninjured (sham) animals had no significant Evans Blue accumulation in brain tissue.

Male Sprague Dawley rats [5] = test: Respiratory pattern and weaning off the ventilator after brain injury; conditions: brain injured rats
Description: as §1
This stability in respiration is thought to be due to both central effects on respiration and by the NK-1 receptor antagonist administered in the method of treatment of the present invention reducing pulmonary edema formation in brain injured animals.

Male Sprague Dawley rats [6] = test: Rotarod motor outcome after traumatic brain injury (impact acceleration model); conditions: i.v. at 30 minutes after injury, NK-1 antagonist 10 mg/kg, MK801 0.3 mg/kg, compared with saline vehicle, 24 h to 10 days post-injury
Description: as §1
Over the next 9 days, there was a gradual improvement in motor performance, however the deficit was always significant compared to pre-injury.

Cc1ccccc1-c1cc(N2CCN(C)CC2)ncc1C(=O)N(C)Cc1cc(C(F)(F)F)cc(C(F)(F)F)c1 [N-(3,5-bis-trifluoromethyl-benzyl)-N-methyl-6-(4-methyl-piperazin-1-yl)-4-o-tolyl-nicotinamide]
latency to escape the aversive stimuli (Barnes Cognitive Score) (Male Sprague Dawley rats [1]; at 24 h / at any time point after injury, pre-injury within 20 sec): did not demonstrate an increased latency
latency to escape the aversive stimuli, course over the ensuing 9 days (Male Sprague Dawley rats [1]; days 2-10 post-injury): improved with each assessment
mortality (Male Sprague Dawley rats [2]): 0%
exploratory behavior and self-grooming (Male Sprague Dawley rats [3]): not significantly different from non-injured animals
Evans Blue accumulation in brain relative to saline treated animals (Male Sprague Dawley rats [4]): 18%
weaning off of the ventilator (Male Sprague Dawley rats [5]; compared with any other treatment group): far more quickly
respiratory pattern (Male Sprague Dawley rats [5]; compared with saline and MK801 treated counterparts): more stable respiratory pattern
motor outcome (Rotarod Motor Score) after brain injury (Male Sprague Dawley rats [6]): significantly better motor outcome
